In one data set the test system is STHdh 7/7 striatal cells. Put plainly: Cell viability after heat shock (CellTiter Glo). It counts as cell-based. The note with it: Mus musculus, 48 hours treatment, percentage in comparison to pre-heat shock cell viability, read-out: Cell Viability striatal cells 3h heat shocked. The procedure:
RESULTS-Table 12bsummarizes the effect of the compounds on cell viability. STHdh 7/7 were heat shocked for 3 hours and treated for 48 hours with small molecule compounds. Table 12b lists the cell viability in striatal cells after 48 hours.
Effect of Compound 22 on Cell Viability of Wildtype Striatal Neurons - STHdh 7/7 cells are striatal cells that express wildtype huntingtin. These cells were cultured in the same conditions as described above for STHdh 111/111. The neurons were first heat shocked for 3 hours at 41 °C as described above. After 48 hours of treatment with the small molecule Compounds, cell viability was determined using the method described above. The "buffer" control is represents cells treated with a buffer only, without any compounds added. Some of the compounds show higher cell viability in comparison to control heat shocked STHdh 7/7 neurons with buffer and no treatment (Figure 5).
(Cellular ATP, detected with luciferase, serves as a proxy for viable cell number.)

The target in another data set is T1, mHTT (Homo sapiens, UniProt P42858).
T1 construct: host or cells: ST HDH Q111/111 mouse striatal cell line (knock-in locus)
T1 sequence (P42858 with tags, fused parts or gaps with the stated changes): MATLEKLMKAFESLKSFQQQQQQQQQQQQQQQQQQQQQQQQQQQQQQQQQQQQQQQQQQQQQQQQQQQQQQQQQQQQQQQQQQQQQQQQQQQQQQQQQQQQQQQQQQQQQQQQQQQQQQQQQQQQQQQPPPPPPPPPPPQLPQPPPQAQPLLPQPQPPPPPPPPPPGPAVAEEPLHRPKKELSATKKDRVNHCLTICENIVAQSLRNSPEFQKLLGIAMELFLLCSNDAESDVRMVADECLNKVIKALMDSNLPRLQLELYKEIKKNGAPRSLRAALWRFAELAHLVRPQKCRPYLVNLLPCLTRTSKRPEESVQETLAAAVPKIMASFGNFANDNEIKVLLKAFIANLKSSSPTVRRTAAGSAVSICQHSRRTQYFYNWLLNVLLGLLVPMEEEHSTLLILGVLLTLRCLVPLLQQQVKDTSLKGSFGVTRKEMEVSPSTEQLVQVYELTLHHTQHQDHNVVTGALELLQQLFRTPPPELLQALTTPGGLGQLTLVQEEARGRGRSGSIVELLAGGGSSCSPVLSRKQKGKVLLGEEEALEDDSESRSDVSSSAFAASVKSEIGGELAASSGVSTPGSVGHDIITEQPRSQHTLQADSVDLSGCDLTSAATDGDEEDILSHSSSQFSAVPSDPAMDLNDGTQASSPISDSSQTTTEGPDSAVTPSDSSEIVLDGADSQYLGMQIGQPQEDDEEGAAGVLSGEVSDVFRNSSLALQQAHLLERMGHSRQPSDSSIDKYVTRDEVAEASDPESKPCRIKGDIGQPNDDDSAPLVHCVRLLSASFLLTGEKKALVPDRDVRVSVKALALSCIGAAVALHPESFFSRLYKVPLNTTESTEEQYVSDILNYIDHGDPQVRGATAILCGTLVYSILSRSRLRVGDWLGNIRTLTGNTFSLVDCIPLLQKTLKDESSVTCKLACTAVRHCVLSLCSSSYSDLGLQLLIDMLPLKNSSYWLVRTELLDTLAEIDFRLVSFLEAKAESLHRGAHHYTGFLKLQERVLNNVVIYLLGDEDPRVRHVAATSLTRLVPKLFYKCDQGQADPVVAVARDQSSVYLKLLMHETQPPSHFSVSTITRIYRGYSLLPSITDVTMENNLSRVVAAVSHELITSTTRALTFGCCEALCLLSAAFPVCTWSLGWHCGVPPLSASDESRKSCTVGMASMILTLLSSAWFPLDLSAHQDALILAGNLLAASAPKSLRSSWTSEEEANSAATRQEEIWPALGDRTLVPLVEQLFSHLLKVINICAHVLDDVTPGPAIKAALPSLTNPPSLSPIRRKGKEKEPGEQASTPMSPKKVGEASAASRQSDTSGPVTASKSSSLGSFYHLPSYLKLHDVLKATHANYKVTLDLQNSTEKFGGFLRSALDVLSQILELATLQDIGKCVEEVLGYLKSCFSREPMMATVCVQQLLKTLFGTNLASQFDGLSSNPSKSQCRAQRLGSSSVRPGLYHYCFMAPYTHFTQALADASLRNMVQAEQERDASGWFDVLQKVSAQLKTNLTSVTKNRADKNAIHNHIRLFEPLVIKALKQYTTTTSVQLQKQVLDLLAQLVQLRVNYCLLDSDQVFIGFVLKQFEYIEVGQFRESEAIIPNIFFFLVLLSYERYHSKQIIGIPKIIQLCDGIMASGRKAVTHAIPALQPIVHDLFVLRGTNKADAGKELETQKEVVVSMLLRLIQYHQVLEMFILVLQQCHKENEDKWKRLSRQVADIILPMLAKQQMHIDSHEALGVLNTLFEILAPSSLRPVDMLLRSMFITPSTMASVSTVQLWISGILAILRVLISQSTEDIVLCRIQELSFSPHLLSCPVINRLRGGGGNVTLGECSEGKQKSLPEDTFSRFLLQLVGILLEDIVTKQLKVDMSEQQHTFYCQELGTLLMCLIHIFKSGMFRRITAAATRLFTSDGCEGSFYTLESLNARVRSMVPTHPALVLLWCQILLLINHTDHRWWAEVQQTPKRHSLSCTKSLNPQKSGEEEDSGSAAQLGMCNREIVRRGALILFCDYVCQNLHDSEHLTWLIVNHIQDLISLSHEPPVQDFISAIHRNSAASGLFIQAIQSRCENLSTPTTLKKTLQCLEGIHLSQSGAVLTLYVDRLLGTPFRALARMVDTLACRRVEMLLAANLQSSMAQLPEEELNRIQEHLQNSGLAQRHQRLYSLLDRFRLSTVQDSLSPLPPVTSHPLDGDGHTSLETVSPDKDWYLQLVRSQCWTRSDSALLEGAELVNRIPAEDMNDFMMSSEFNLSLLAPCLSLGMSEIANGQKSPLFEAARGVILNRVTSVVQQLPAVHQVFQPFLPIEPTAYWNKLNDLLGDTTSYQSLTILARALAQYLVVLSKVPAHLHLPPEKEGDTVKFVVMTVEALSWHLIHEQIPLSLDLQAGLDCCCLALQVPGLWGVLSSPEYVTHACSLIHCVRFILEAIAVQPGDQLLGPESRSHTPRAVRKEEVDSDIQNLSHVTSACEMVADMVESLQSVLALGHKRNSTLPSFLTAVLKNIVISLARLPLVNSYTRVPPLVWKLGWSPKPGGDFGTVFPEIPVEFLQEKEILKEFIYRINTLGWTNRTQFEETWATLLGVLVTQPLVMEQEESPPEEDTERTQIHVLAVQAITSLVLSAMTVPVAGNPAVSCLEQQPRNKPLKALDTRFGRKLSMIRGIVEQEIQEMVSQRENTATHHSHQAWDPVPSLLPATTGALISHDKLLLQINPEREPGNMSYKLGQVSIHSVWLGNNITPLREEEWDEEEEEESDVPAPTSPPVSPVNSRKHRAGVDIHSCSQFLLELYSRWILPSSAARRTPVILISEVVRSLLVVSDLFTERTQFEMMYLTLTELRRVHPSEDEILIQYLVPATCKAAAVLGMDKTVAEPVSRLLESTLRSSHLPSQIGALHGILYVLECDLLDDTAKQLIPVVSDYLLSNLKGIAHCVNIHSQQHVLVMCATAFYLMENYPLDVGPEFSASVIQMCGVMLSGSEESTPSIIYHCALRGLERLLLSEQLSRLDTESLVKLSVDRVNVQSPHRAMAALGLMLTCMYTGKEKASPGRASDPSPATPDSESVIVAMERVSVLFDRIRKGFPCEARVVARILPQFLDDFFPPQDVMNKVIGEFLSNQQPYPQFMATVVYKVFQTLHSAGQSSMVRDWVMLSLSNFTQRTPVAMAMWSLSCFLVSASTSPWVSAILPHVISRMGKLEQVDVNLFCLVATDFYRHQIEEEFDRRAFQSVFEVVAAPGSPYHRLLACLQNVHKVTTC
Put plainly: mHTT levels in striatal cells (immunocytochemistry). It counts as cell-based, mouse. The note with it: STHdh 111/111; 10 µM; 3 hours heat shock, 48 hours treatment; percentage in comparison to untreated STHdh 111/111; 3B5H10 antibody; read-out: mHTT after treatment. The protocol: (§1) Staining - Cells were permeabilized with 0.3% Triton X-100 in 4 °C PBS (pH 7.4 from ThermoFisher) for 10 minutes. Then the cells were washed two times with 4 °C PBS. Subsequently, cells are blocked with 3% NGS (normal goat serum from Thermo Fisher) in 4 ° C PBS for 1 hour. Cells were incubated with primary antibodies in blocking buffer (PBS, 3% NGS, 0.02% NaN3) over night at 4 °C. Primary antibodies were mouse antipolyglutamine monoclonal antibody 3B5H10 (Sigma-Aldrich) at 1:250 dilution and Guinea Pig anti-MAP2 polyclonal antibody (Synaptic Systems) at 1:500 dilution. 3B5H10 binds to diffuse mHTT. Diffuse mHTT is a monomeric and small oligomeric mHTT. Diffuse mHTT is correlated to pathological parameters in Huntington's disease. Compounds that bind the mHTT will reduce the levels of diffuse mHTT detected.
Cells were washed 2 times with 4 °C PBS, and then incubated with secondary antibodies at 1:2000 dilution in blocking buffer for 1hour at room temperature. […] Cells were washed 2 times with 4 °C PBS, and then the nuclei were counterstain with DAPI (ThermoFisher) for 10 min at room temperature in the dark. Cells were washed 2 times with 4 °C PBS, and then 4 °C PBS was added to cells and then images were acquired. […] Table 11: Antibodies Used in Immunocytochemistry Studies
Fluorescence Imaging - Imaging sessions were performed on a confocal microscope system (Carl Zeiss Microscopy) equipped with a dual spinning disk unit (Yokogawa). All components of the imaging system were controlled via the ZEN 2 software suite (Carl Zeiss Microscopy). The laser lines used were 405 nm, 488 nm and 639 nm to excite DAPI or the respective fluorophores. […] Nested t test was performed to calculate the significance amongst repeated measurements using GraphPad Prism software.
as §1, with “For LC3 staining primary antibodies were mouse anti-LC3 mab (5F10) (nanoTools) at 1:500 dilution” for “3B5H10 binds to diffuse mHTT. Diffuse mHTT is a monomeric”, “Guinea Pig anti-MAP2 polyclonal antibody (Synaptic Systems) at 1:500 dilution.” for “small oligomeric mHTT. Diffuse mHTT is correlated to pathological parameters in Huntington's disease. Compounds that bind the mHTT will reduce the levels of diffuse mHTT detected.”
Cells were washed 2 times with 4 °C PBS, and then incubated with secondary antibodies at 1:2000 dilution in blocking buffer for 1hour at room temperature. […] Cells were washed 2 times with 4 °C PBS, and then the nuclei were counterstain with DAPI (ThermoFisher) for 10 min at room temperature in the dark. Cells were washed 2 times with 4 °C PBS, and then 4 °C PBS was added to cells and then images were acquired.
EC 50 value was determined with non-linear regression.

Data set [1] concerns STHdh 111/111 striatal cells. Put plainly: Cell viability after heat shock (CellTiter Glo). Particulars: Mus musculus, read-out: Cell Viability striatal cells 3h heat shocked.
Method: Cell culture - ST HDH Q111/111 (CH00095, Coriell Institute) striatal derived cell line were grown at 33°C in DMEM (Sigma-Aldrich), supplemented with 10% fetal bovine serum (FBS), 1% Penicillin-Streptomycin (ThermoFisher Scientific), and 0.4 mg/ml G418 (Geneticin; Invitrogen). ST HDH Q111/111 are mouse striatal cells with polyQ length of 111.
Pre-Treatment of striatal cell line - First the medium was removed and new DMEM (DMEM, high glucose, HEPES, no phenol red) medium, supplemented with 10% fetal bovine serum (FBS), 1% Penicillin-Streptomycin, containing 10 µM compound was added. The cells were incubated at 33 °C for 24 hours.
Heat shock - Cells were heat shocked for 3 hours at 41 °C.
Treatment - Medium was removed and new DMEM (DMEM, high glucose, HEPES, no phenol red) medium, supplemented with 1% fetal bovine serum (FBS), 1% Penicillin-Streptomycin, containing 10 µM compound was added. The cells were incubated at 33 °C for 48 hours.
Cell Viability - Cell viability was measured according to manufacturer recommendations with CellTiter Glo (Promega).
The next data set concerns Mur16 and/or Mur46. Put plainly: Biacore Surface Plasmon Resonance (SPR) screening, binding to the target structures. The note with it: for Binding properties: third analog screening, binding to the target structure in comparison to parent compound; for Biacore affinity: primary screen, compounds that demonstrated binding to Mur16 and/or Mur46. The procedure:
(§2) Exon 1 of the HTT huntingtin (NCBI Gene ID 3064) was expressed as a fusion protein with (i) TRX only (MurTRX); (ii) 16Q (Mur16); and (iii) 46Q (Mur46). MurTRX, Mur16, and Mur46 were produced and purified by HIStag and size exclusion chromatography (SEC). The protocol for MurTRX, Mur16 and Mur46 expression was adopted from Bennett, M.J. et al. Proc. Natl. Acad. Sci. USA 99, 11634-11639. 2002.
Primary Screen - Results - 39 compounds determined from the in-silico screen were tested. Following solvent correction and blank subtraction, double referenced binding levels for samples were plotted against binding levels on both Mur 16 and Mur 46. […] The 4 compounds consistently bind with a higher response on the 16 Q surface than the 46 Q repeat surface, despite the MAb positive control showing the opposite trend.
(In general: SPR reads the build-up and loss of mass on a sensor chip optically.)

A further data set addresses T2, Mur46 (Homo sapiens, UniProt P42858, INS38QQQQQQQQQQQQQQQQQQQQQQQQQ).
T2 construct: linker […]; made in house; host or cells: E. coli BL21(DE3) plysE, pET28a+
Put plainly: Biacore SPR, Mur46 coupled flow cell. The note with it: binding to Mur46; 0.1 mM compound concentration.
Excerpt: as §2
Biacore Affinity Values for Binding of Compounds to Mur46

The test system of another data set is zebrafish larvae. Put plainly: Motility Zebrafish Model (MPP+ exposure, photomotor assay and sleep). Particulars: 500 µM MPP+ alone (naïve 40.8).

SMILES strings stand for the structures.

T2 sequence (P42858 with tags, fused parts or gaps with the stated changes limits assumed): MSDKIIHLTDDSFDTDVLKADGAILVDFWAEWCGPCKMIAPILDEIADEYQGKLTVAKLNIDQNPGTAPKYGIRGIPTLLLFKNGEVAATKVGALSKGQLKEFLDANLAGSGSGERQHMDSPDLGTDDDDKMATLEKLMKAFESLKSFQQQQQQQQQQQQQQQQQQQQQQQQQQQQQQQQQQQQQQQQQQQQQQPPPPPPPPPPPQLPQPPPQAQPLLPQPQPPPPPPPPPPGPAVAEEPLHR
Method for zebrafish larvae: Six groups were included in each experiment. Immediately after spawning, 40 embryos per group were allocated to a 24-well plate and system water (solvent) was added to all wells. […] MPP+ was prepared immediately prior to incubation and solutions were changed daily. At 120 hpf, drug treatment and MPP+ exposure was ceased and a 3X wash was performed with system water. Larvae were then relocated to 96-well plates for behavioral recording and placed in a separate recording room for 24-hour acclimation. Prior to behavioral recording, wells were fully replenished system water.
Naive group was exposed to solvent only. Vehicle group was exposed to solvent and vehicle corresponding to the vehicle of 20 µM drug solution (0.02% DMSO). MPP+ positive control was exposed to solvent and 500 µM MPP+.
Behavioral data was recorded from 1 p.m. on 6 dpf until shortly after wakening on 7 dpf. The recording consisted of a photomotor assay in which lights switch off and on in 30-minute intervals between 1 p.m. and 6 p.m., producing a consistent photomotor response. […] Upon lights being turned on again, the larvae cease movement followed by a return to baseline. This cycle is repeated five times. Following the last lights-off phase, constant illumination is presented until lights turn off at 10 p.m. for the night. Lights turn on again at 8 a.m. the following day.
Average movement frequency was measured during 30-minute lights-on phases of photomotor assay.
Distance moved (mm) was defined as the average distance moved during 30-minute lights-on phases of photomotor assay.
All data are presented as mean ± standard error of the mean (sem). For analysis of differences between groups, a Kruskal-Wallis one-way ANOVA with Dunn's multiple comparison post hoc test was performed. P < 0.05 was considered statistically significant.

The viability is a read-out of living cells in per cent, often relative to untreated cells. For the compound `Cc1[nH]c2ccc(C(=O)NCCNC(C)(C)C)cc2c1C` [Compound 50], the viability at 10 µM in the data set on STHdh 7/7 striatal cells amounted to 40.9%; in data set [1], 67%. In addition, on mHTT, the remaining activity at 10 µM is 72%.

`CC(C)N(CCNC(=O)c1ccc2[nH]c3c(c2c1)CCCC3)C(C)C` [Compound 57]: in the data set with Mur16 and/or Mur46, the Binding properties entry is reported as “++”.

In the case of `Cc1[nH]c2ccc(C(=O)Nc3ccccc3NC3CCN(C)CC3)cc2c1C` [Compound 103], the Binding properties result in the data set with Mur16 and/or Mur46 is given as “++”.

Take `Cc1[nH]c2ccc(C(=O)NCCN(C)C3CCCC3)cc2c1C` [Compound 105]: the Binding properties result in the data set with Mur16 and/or Mur46 is listed as “++”.

With `O=C(O)C1Cc2c([nH]c3ccccc23)C(c2cccc(Br)c2)N1` (stereo not drawn) [Compound 109], the Biacore affinity in the data set with Mur16 and/or Mur46 was 3 RU^2.

Take `Cc1[nH]c2ccccc2c1[C@]1(O)C(=O)Nc2c(Br)cc(Br)cc21` [Compound 110]: the Biacore affinity with Mur16 and/or Mur46 came out at 80 RU^2.

Take `Cc1[nH]c2ccc(C(=O)NCC(=O)NC(C)C)cc2c1C` [Compound 113]: in the data set on Mur16 and/or Mur46, the Biacore affinity came to 160 RU^2.

At Mur46, `Cc1[nH]c2ccc(C(=O)N(C)CCN(C)C3CC3)cc2c1C` [Compound 114] returned a Biacore affinity of 20 RU^2. Further, the Binding properties entry in the data set with Mur16 and/or Mur46 was “+/-”.

`C[n+]1ccc(-c2ccccc2)cc1` [MPP+, 1-methyl-4-phenylpyridinium, reference compound]: the movement frequency in the data set on zebrafish larvae is recorded as 13.3 movement bouts in 30 minutes.

For the origin of these results see patent publication EP4140481A1, “PROTEIN-OLIGOMER BINDING AGENTS AND THERAPEUTIC USES THEREOF” (Galyan Bio, Inc., priority 2021, dated 2023).
